Data as given in PubChem BioAssay (NCI).
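Each compound was tested at five concentrations against cells in 96-well plates for 48 hours. TGI denotes the concentration required for complete inhibition of growth.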

Legend:
Assay in all cases: NCI tumour cell line growth inhibition, 48 h
[1] = system: TK-10 renal
[2] = system: ACHN renal
[3] = system: HL-60(TB) leukemia
[4] = system: OVCAR-5 ovarian
[5] = system: SNB-78 CNS
[6] = system: UACC-257 melanoma
[7] = system: SNB-19 CNS
[8] = system: LXFL 529 NSCLC
[9] = system: SW-620 colon
[10] = system: SK-MEL-2 melanoma
[11] = system: LOX IMVI melanoma
[12] = system: SR leukemia
[13] = system: CCRF-CEM leukemia
[14] = system: MOLT-4 leukemia
[15] = system: HCT-116 colon
[16] = system: KM12 colon
[17] = system: DMS 114 small cell lung
[18] = system: HOP-92 NSCLC
[19] = system: 786-0 renal
[20] = system: KM20L2 colon
[21] = system: M14 melanoma
[22] = system: RPMI-8226 leukemia
[23] = system: SF-268 CNS
[24] = system: HCT-15 colon
[25] = system: EKVX NSCLC
[26] = system: SNB-75 CNS
[27] = system: OVCAR-8 ovarian
[28] = system: CAKI-1 renal
[29] = system: U251 CNS
[30] = system: NCI-H522 lung
[31] = system: IGROV1 ovarian
[32] = system: SF-295 CNS
[33] = system: UO-31 renal
[34] = system: SK-OV-3 ovarian
[35] = system: COLO 205 colon
[36] = system: HT29 colon
[37] = system: OVCAR-3 ovarian
[38] = system: SK-MEL-28 melanoma
[39] = system: SN12C renal
[40] = system: M19-MEL melanoma
[41] = system: K-562 leukemia
[42] = system: HOP-18 NSCLC
[43] = system: HOP-62 NSCLC
[44] = system: SK-MEL-5 melanoma
[45] = system: A549 NSCLC
[46] = system: UACC-62 melanoma
[47] = system: MALME-3M melanoma
[48] = system: DLD-1 colon
[49] = system: RXF 393 renal
[50] = system: NCI-H23 lung
[51] = system: SF-539 CNS
[52] = system: HCC-2998 colon
[53] = system: NCI-H226 lung
[54] = system: NCI-H460 lung
[55] = system: OVCAR-4 ovarian

Measured: TGI

O=c1[nH]cnc2c(COCCCO)c[nH]c12
not listed: [51] | [52] | [53] | [54] | [55]
> 100 µM: all other assays above

COc1cc2cccc(N=Cc3ccccc3Cl)c2cc1OC
> 100 µM: all assays above
